# Data reported in patent US6407106B1, “N-triazolylmethyl-piperazine compounds with neurokinin-receptor antagonist activity” (Solvay Pharmaceuticals GmbH, priority 2000, dated 2002).
# What was measured:
# basal blood pressure = assay: Vasodepressive effects based on calcium-antagonistic properties (action on basal blood pressure); type: in vivo; conditions: guinea pig, i.v. doses of up to 0.1 μmol/kg and p.o. doses of up to 3.2 μmol/kg
# Procedure: The arterial catheter served to measure the blood pressure. The administration of Substance P and, in the case of i.v. administration, also the administration of the test substance, was effected by means of the venous access. After a 20-minute equilibration phase, 50 pmol/animal of Substance P were administered (bolus, i.v.) as a test stimulus. One minute after administration of the test stimulus, in each case the maximum drop in blood pressure induced thereby was determined as a control for the later stimulation of the NK-1 receptors by the test substance. Then the test substance was administered. For the i.v. investigation, the test substance was administered in metered doses of 0.01 to 0.1 μmol/kg. For the p.o. investigation, the test substance was administered in metered doses of 0.1 to 3.2 μmol/kg. Tylose or Tylose/ethanol was used as the vehicle for the p.o. investigations. Then, in each case the extent of the vasodepression inhibited by the test substance was measured, starting 1 minute after administration of test substance, up to 90 minutes after administration of test substance, at intervals of 15 minutes each time. The doses at which, dependent on the time, just 50% inhibition of the Substance P-induced vasodepression occurs due to the test substance were determined from these measured values as ED50 values. […]
# NK-1 receptors = target: T1, NK-1 receptors (Cavia porcellus, UniProt P30547); assay: Functional NK-1 antagonism on isolated guinea pig aorta rings (inhibition of Substance P-induced relaxation); type: cell-based; conditions: half maximum inhibition of relaxation of tone caused by 0.01 μmol Substance P; phenylephrine-tonicised guinea pig aorta
# T1 construct: isolated ring preparations, kept in an oxygenated nutrient solution, of the aortas of Pirbright-White guinea pigs; from tissue; host or cells: isolated aorta rings of Pirbright-White guinea pigs
# Procedure: The action antagonistic to NK-1 receptors of the test substances was measured in vitro on isolated ring preparations, kept in an oxygenated nutrient solution, of the aortas of Pirbright-White guinea pigs. The inhibition by the test substances of the relaxation of tone of the aorta preparations, caused after stimulation with the NK-1 agonist Substance P, was determined.
# In order to measure the contraction of the vessel muscles, the preparations were fixed to a hook, joined by a thread to a force measuring apparatus and the contractions were recorded in each case on a plotter. The aorta preparations were tonicised with phenylephrine. Then before and after the administration of the test substance the NK-1 receptors of the preparations were stimulated with 0.01 μmol Substance P, which caused relaxation of the tone. The relaxations before and after the administration of the test substance were quantified in percent. The effective concentration of the half maximum inhibition of the relaxation of the tone (=EC50) was calculated. The negative common logarithm of the EC50 value (=pEC50) was given as characteristic variable. The pEC50 value is a measurement of the functional effectiveness of the test substances on NK-1 receptors.
# gerbil foot tapping = assay: Gerbil foot tapping test for CNS-permeable NK-1 antagonists; type: in vivo; conditions: doses of up to 30 mg/kg p.o.
# human NK-1 receptors = target: T2, human NK-1 receptors (Homo sapiens, UniProt P25103); assay: Binding power of the test substances to NK-1 receptors in vitro ([3H]-Substance P displacement, CHO cell membranes); conditions: negative common logarithm of Ki calculated from IC50
# T2 construct: expressed in transfected cells; host or cells: CHO cells (membrane preparation)
# Procedure: The affinity of the test substances to human NK-1 receptors was measured in vitro. The inhibition of the binding of the physiological neurokinin (Substance P) to neurokinin-1 receptors was determined.
# The receptor binding studies were performed with [^3H]-Substance P as ligand. For the binding test, different samples of a membrane preparation of CHO cells (=egg cells of the Chinese hamster, […]), which express the human NK-1 receptor (“Accession Number” of the associated nucleic acid sequence=M74290; “Accession Number” of the associated protein sequence=P25103; cf. Takeda, Y.; Chou, K. B., Takeda, J.; Sachais, B. S. and Krause, J. E; Biochemical and Biophysical Research Communications, 179(3) (1991) 1232-1240), were incubated with a solution of the marked ligand, with the incubation mixtures containing no test substance or additions of different concentrations of test substance. Then, separation of bound and free ligands was performed in each of the samples with the aid of glass-fibre filtration. The fraction remaining in the filter was washed several times with buffer solution and then the radioactivity of the fraction remaining in the filter was measured using a beta scintillation counter.
# For the compounds of Examples 1 and 8 to 65, the affinity to human NK-1 receptors was determined in each case by a single measurement of the test substances in a concentration of 10^−7 mol/l.
# For the compounds of Examples 2 and 4-6, that concentration which effects half maximum displacement of the bound ligand was determined as IC50 of the respective test substance. From this, the corresponding inhibition constant (Ki value) of the test substance was calculated, and was stated as the negative common logarithm of the Ki value (=pKi value). The pKi value is a measurement of the affinity of the test substances to human NK-1 receptors.
# Solubility in water = type: physicochemical
# T2 sequence (P25103 whole entry): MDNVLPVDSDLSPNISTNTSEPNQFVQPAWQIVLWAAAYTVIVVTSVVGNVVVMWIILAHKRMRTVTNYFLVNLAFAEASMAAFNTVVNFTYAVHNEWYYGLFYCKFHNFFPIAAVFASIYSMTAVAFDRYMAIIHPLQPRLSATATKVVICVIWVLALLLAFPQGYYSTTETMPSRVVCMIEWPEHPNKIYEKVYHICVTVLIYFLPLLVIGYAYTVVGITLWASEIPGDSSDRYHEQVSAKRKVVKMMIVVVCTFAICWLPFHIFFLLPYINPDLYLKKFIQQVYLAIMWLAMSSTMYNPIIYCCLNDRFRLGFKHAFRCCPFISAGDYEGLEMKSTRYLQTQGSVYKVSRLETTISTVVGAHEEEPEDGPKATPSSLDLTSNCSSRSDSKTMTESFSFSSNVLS
# T1 sequence (P30547 whole entry): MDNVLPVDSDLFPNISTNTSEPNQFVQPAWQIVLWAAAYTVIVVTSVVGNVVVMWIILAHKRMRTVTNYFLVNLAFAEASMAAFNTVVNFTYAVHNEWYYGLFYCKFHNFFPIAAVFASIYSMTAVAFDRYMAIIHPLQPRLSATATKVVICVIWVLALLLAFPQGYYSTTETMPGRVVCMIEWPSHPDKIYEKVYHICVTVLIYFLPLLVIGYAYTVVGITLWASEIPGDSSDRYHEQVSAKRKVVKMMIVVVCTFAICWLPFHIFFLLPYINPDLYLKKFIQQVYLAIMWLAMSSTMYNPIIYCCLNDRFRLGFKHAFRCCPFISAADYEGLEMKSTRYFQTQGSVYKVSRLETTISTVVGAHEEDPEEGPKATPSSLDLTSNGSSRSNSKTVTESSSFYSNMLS
structure (smiles),measurement,setting,value
"O=C(c1cc(C(F)(F)F)cc(C(F)(F)F)c1)N1CCN(Cc2n[nH]nc2CN2CCOCC2)C[C@H]1Cc1c[nH]c2ccccc12 [Example 1, (2R)-1-[3,5-Bis(trifluoromethyl)benzoyl]-2-(1H-indol-3-ylmethyl)-4-{[5-(morpholinomethyl)-2H-1,2,3-triazol-4-yl]methyl}piperazine]","vasodepression (action on basal blood pressure, calcium-antagonistic side-effect)",basal blood pressure,no significant vasodepression
same,EC50,NK-1 receptors,1 nM
same,typical effects of CNS-permeable NK-1 antagonists,gerbil foot tapping,did not exhibit any typical effects of CNS-permeable NK-1 antagonists
Cn1cc(C[C@@H]2CN(Cc3n[nH]nc3CN3CCOCC3)CCN2C(=O)c2cc(C(F)(F)F)cc(C(F)(F)F)c2)c2ccccc21 [Example 3],EC50,NK-1 receptors,3.98 nM
"CN(C)Cc1n[nH]nc1CN1CCN(C(=O)c2cc(C(F)(F)F)cc(C(F)(F)F)c2)[C@H](Cc2c[nH]c3ccccc23)C1 [Example 4, (2R)-1-[3,5-Bis(trifluoromethyl)benzoyl]-2-(1H-indol-3-ylmethyl)-4-{[5-(dimethylaminomethyl)-2H-1,2,3-triazol-4-yl]methyl}piperazine]",Ki,human NK-1 receptors,5.01 nM
same,EC50,NK-1 receptors,2.51 nM
"Cl.Cl.O=C(c1cc(C(F)(F)F)cc(C(F)(F)F)c1)N1CCN(Cc2n[nH]nc2CN2CCOCC2)C[C@H]1Cc1c[nH]c2ccccc12 [(2R)-1-[3,5-bis(trifluoromethyl)benzoyl]-2-(1H-indol-3-ylmethyl)-4-{[5-(morpholinomethyl)-2H-1,2,3-triazol-4-yl]methyl}piperazine-dihydrochloride]",solubility in water,Solubility in water,comparatively readily soluble in water
CCN(CC)Cc1n[nH]nc1CN1CCN(C(=O)c2cc(C(F)(F)F)cc(C(F)(F)F)c2)[C@H](Cc2c[nH]c3ccccc23)C1 [Example 5],Ki,human NK-1 receptors,5.01 nM
same,EC50,NK-1 receptors,2 nM
CC(C)N(Cc1n[nH]nc1CN1CCN(C(=O)c2cc(C(F)(F)F)cc(C(F)(F)F)c2)[C@H](Cc2c[nH]c3ccccc23)C1)C(C)C [Example 6],Ki,human NK-1 receptors,3.98 nM
same,EC50,NK-1 receptors,1.26 nM
O=C(c1cc(C(F)(F)F)cc(C(F)(F)F)c1)N1CCN(Cc2n[nH]nc2CN2CCNCC2)C[C@H]1Cc1c[nH]c2ccccc12 [Example 2],Ki,human NK-1 receptors,3.98 nM
same,EC50,NK-1 receptors,0.794 nM
